The results in this text go back to patent publication US7888360B2, “Pyridine and pyrimidine derivatives as inhibitors of histone deacetylase” (Janssen Pharmaceutica N.V., priority 2006, dated 2011).

The structures appear in SMILES notation. In brackets after ≈: the same amount, converted by molar mass. Where two headings read alike, the source gives them in different places.

In data set [1] the target is histone deacetylase (HeLa nuclear extracts). The data set is described as follows: In vitro assay for inhibition of histone deacetylase (Fluor de Lys, HeLa nuclear extracts). The settings on record: Fluor de Lys substrate. Also noted: key: pIC50 = negative log of IC50. The class given is biochemical. An excerpt:
The HDAC Fluorescent Activity Assay/Drug Discovery Kit of Biomol (cat. No: AK-500-0001) was used. The HDAC Fluorescent Activity Assay is based on the Fluor de Lys (Fluorogenic Histone deAcetylase Lysyl) substrate and developer combination. The Fluor de Lys substrate, comprises an acetylated lysine side chain. Deacetylation of the substrate sensitizes the substrate so that, in the second step, treatment with the Fluor de Lys developer produces a fluorophore.
HeLa nuclear extracts (supplier: Biomol) were incubated at 60 μg/ml with 75 μM of substrate. The Fluor de Lys substrate was added in a buffer containing 25 mM Tris, 137 mM NaCl, 2.7 mM KCl and 1 mM MgCl2.6H2O at pH 7.4. After 30 min, 1 volume of the developer was added. The fluorophore was excited with 355 nm light and the emitted light (450 nm) was be detected on a fluorometric plate reader.
For each experiment, controls (containing HeLa nuclear extract and buffer), a blank incubation (containing buffer but no HeLa nuclear extract) and samples (containing compound dissolved in DMSO and further diluted in buffer and HeLa nuclear extract) were run in parallel. In first instance, compounds were tested at a concentration of 10^−5M. […] All sample were tested 4 times. In each test the blank value was subtracted from both the control and the sample values. The control sample represented 100% of substrate deactylation. For each sample the fluorescence was expressed as a percentage of the mean value of the controls. […] Herein the effects of test compounds are expressed as pIC50 (the negative log value of the IC50-value) (see Table F-2).

Data set [2] relates to A2780 ovarian carcinoma cells. Kind of data set: Antiproliferative activity on A2780 cells (MTT). Format: cell-based, human. As to conditions: four days of incubation; for IC50: Homo sapiens, A2780, 96 h, read-out: Cellular activity pIC50 C.2. (converted). The protocol: All compounds tested were dissolved in DMSO and further dilutions were made in culture medium. Final DMSO concentrations never exceeded 0.1% (v/v) in cell proliferation assays. Controls contained A2780 cells and DMSO without compound and blanks contained DMSO but no cells. MTT was dissolved at 5 mg/ml in PBS. A glycine buffer comprised of 0.1 M glycine and 0.1 M NaCl buffered to pH 10.5 with NaOH (1 N) was prepared (all reagents were from Merck).
The human A2780 ovarian carcinoma cells (a kind gift from Dr. T. C. Hamilton [Fox Chase Cancer Centre, Pa., USA]) were cultured in RPMI 1640 medium supplemented with 2 mM L-glutamine, 50 μg/ml gentamicin and 10% fetal calf serum. Cells were routinely kept as monolayer cultures at 37° C. in a humidified 5% CO2 atmosphere. Cells were passaged once a week using a trypsin/EDTA solution at a split ratio of 1:40. All media and supplements were obtained from Life Technologies. Cells were free of mycoplasma contamination as determined using the Gen-Probe Mycoplasma Tissue Culture kit (supplier: BioMérieux).
Cells were seeded in NUNC™ 96-well culture plates (Supplier: Life Technologies) and allowed to adhere to the plastic overnight. Densities used for plating were 1500 cells per well in a total volume of 200 μl medium. After cell adhesion to the plates, medium was changed and drugs and/or solvents were added to a final volume of 200 μl. Following four days of incubation, medium was replaced by 200 μl fresh medium and cell density and viability was assessed using an MTT-based assay. To each well, 25 μl MTT solution was added and the cells were further incubated for 2 hours at 37° C. The medium was then carefully aspirated and the blue MTT-formazan product was solubilized by addition of 25 μl glycine buffer followed by 100 μl of DMSO. […] Within an experiment, the results for each experimental condition are the mean of 3 replicate wells. For initial screening purposes, compounds were tested at a single fixed concentration of 10^−6 M. For active compounds, the experiments were repeated to establish full concentration-response curves. For each experiment, controls (containing no drug) and a blank incubation (containing no cells or drugs) were run in parallel. The blank value was subtracted from all control and sample values. For each sample, the mean value for cell growth (in absorbance units) was expressed as a percentage of the mean value for cell growth of the control. […] Herein the effects of test compounds are expressed as pIC50 (the negative log value of the IC50-value) (see Table F-2).

The nature of data set [3]: Kinetic solubility in aqueous media C.3.b (BD Gentest Solubility Scanner). As to conditions: aqueous buffer. The class given is physicochemical. As to the method:
DMSO-stock solutions from 5000-9.8 μM (1/2 dilutions) are made in DMSO in a 96 well stock solution plate (200 μl per well). After each dilution the samples are mixed. Aliquots of these DMSO solutions (2 μl) are then transferred into 2 other 96 well buffer plates, containing 200 μl per well aqueous buffer. Each of the buffer plates contains either aqueous buffer pH 7.4 or aqueous buffer pH 4.0. After the last dilution the buffer plates are mixed and the samples are stabilized at room temperature for ½ hour. Dilution is done in duplicate for each compound to exclude occasional errors. Mixtures are then scanned in the BD Gentest Solubility Scanner for the occurrence of precipitation. Based on the absence/presence of precipitate in the mixtures the kinetic solubility is calculated by interpolation. Ranking is performed into the 3 classes. […] (see Table F-2).

A short description of data set [4]: Solubility C.3.c (chemiluminescent nitrogen detector). Format: physicochemical. As to conditions: aqueous buffer; pH = 2.3; read-out: Solubility C.3.c. pH = 2.3 mg/ml. The source says:
The solubility of a compound, at different pH's, can also be measured with the use of a chemiluminescent nitrogen detector (see Table F-2).

Assay in data set [5]: not given
This is another data set of the same source.

Data set [6] can be described thus: Kinetic solubility in aqueous media C.3.a (nephelometer). The class given is physicochemical. The settings on record: aqueous buffer, kinetic from dmso stock; phosphate citrate buffer pH 7.4, turbidity score. The protocol:
In the first dilution step, 10 μl of a concentrated stock-solution of the active compound, solubilized in DMSO (5 mM), was added to 100 μl phosphate citrate buffer pH 7.4 and mixed. In the second dilution step, an aliquot (20 μl) of the first dilution step was further dispensed in 100 μl phosphate citrate buffer pH 7.4 and mixed. Finally, in the third dilution step, a sample (20 μl) of the second dilution step was further diluted in 100 μl phosphate citrate buffer pH 7.4 and mixed. All dilutions were performed in 96-well plates. Immediately after the last dilution step the turbidity of the three consecutive dilution steps were measured with a nephelometer. Dilution was done in triplicate for each compound to exclude occasional errors. Based on the turbidity measurements a ranking is performed into 3 classes. Compounds with high solubility obtained a score of 3 and for this compounds the first dilution is clear. Compounds with medium solubility obtained a score of 2. For these compounds the first dilution is unclear and the second dilution is clear.

For data set [7], the system named is p21 promoter reporter A2780 clone tumour. The data set is described as follows: p21 induction in vivo method C.6.c (tumour fluorescence in nude mice). As to conditions: dosed orally or intravenously daily during 6 days, 20-40 mpk. The protocol: Another method tests the capacity of compounds to induce p21 as the consequence of HDAC inhibition at the cellular level. […] The reporter gene is a fluorescent protein and the expression of the reporter gene is measured as the amount of fluorescent light emitted (see example C.6.b.). The last method is an in vivo method wherein mice are used for screening the pharmaceutical activity of a compound. The above described stably transformed tumour cells can be administered to mice in an amount sufficient to effect production of a tumour. After the tumour cells had sufficient time to form a tumour, a potentially active compound can be administered to the animals and the effect of said compound on the tumour cells is evaluated by measuring the expression of the reporter gene. Incubation with pharmaceutical active compounds will result in an increase of reporter gene expression compared to the control levels (see example C.6.c.)
A selected clone was injected subcutaneous (10^7 cells/200 μl) into the flank of nude mice and a calliper measurable tumour was obtained after 12 days. […] Tumours were evaluated for fluorescence by the in-house developed Automated Whole Body Imaging System (Fluorescent stereomicroscope type Olympus® SZX12 equipped with a GFP filter and coupled to a CCD camera type JAI® CV-M90 controlled by a software package based on the IMAQ Vision Software from National Instruments®).

Where [8] appears, read: kinetic from dmso stock, pH = 4, score, read-out: Solubility C.3.b pH = 4.
Where [9] appears, read: pH 7.4, kinetic from dmso stock, pH = 7, score, read-out: Solubility C.3.b. pH = 7.

`COc1cc(N)c(Cl)cc1C(=O)NC1CCN(CCCOc2ccc(F)cc2)CC1OC` (stereo not drawn) [Cisapride]: the “% metabolism” value (human, 15 min, 5 μM) turned out to be 45%.
As for `O=C(NO)c1cnc(N2CCN(C(CO)c3cccc4ccccc34)CC2)nc1` (stereo not drawn) [Compound 1], the “Enzymatic activity pIC50 C.1.” value in data set [1] was found to be 10.0. Moreover, the IC50 in data set [2] is 100 nM. Besides, the solubility at 0.5 h in data set [3] (setting [8]) and in data set [3] (setting [9]) was 10 to 50 µM (≈ 3.93 to 19.7 µg/mL) each time. Besides, the solubility in data set [4] was found to be 2900 µg/mL (≈ 7.37 mM). In addition, the melting point (commonly the temperature, or range, at which the solid turns liquid) in data set [5] came out at 136 °C.
Regarding `O=C(NO)c1cnc(N2CCN(C(CO)c3cc4ccccc4s3)CC2)nc1` (stereo not drawn) [Compound 2], in data set [1], the “Enzymatic activity pIC50 C.1.” value was 10.1. Moreover, the IC50 in data set [2] is 15.8 nM. The solubility at 0.5 h was not above 10 µM in data set [3] (setting [8]) and 10 to 50 µM (≈ 3.99 to 20 µg/mL) in data set [3] (setting [9]). In addition, the solubility in data set [4] came to 3250 µg/mL (≈ 8.14 mM). Also, the melting point in data set [5] was 165 °C.
In the case of `O=C(NO)c1cnc(N2CCN(C(CO)c3cn(S(=O)(=O)c4ccccc4)c4ccccc34)CC2)nc1` (stereo not drawn) [Compound 3], the “Enzymatic activity pIC50 C.1.” value in data set [1] is more than 9. Moreover, the IC50 in data set [2] was less than 31.6 nM. Further, the solubility at 0.5 h in data set [3] (setting [8]) and in data set [3] (setting [9]) was 10 to 50 µM (≈ 5.23 to 26.1 µg/mL) each time. This molecule displayed a melting point in data set [5] of 206 °C.
With `CCN(CC1CCN(c2ncc(C(=O)NO)cn2)CC1)C(CO)c1cc2ccccc2o1` (stereo not drawn) [Compound 4], the “Enzymatic activity pIC50 C.1.” value in data set [1] is 7.9. For the same molecule, in data set [2], the IC50 was 251 nM. Also, the solubility at 0.5 h is not above 10 µM in data set [3] (setting [8]) and 10 to 50 µM (≈ 4.4 to 22 µg/mL) in data set [3] (setting [9]). In data set [5], the melting point came to 90 °C.
With `CC(C)(C)c1ccc(C(C(O)CO)N2CCN(c3ncc(C(=O)NO)cn3)CC2)cc1` (stereo not drawn) [Compound 5], the “Enzymatic activity pIC50 C.1.” value in data set [1] is 7.5. Moreover, the IC50 in data set [2] was 100 nM. Besides, in data set [4], the solubility came out at 1390 µg/mL (≈ 3.24 mM). Moreover, in data set [5], the melting point lay in the range of 138 to 154 °C.
For the molecule `CC(C)(C)c1ccc([C@H]([C@H](O)CO)N2CCN(c3ncc(C(=O)NO)cn3)CC2)cc1` [Compound 6], the “Enzymatic activity pIC50 C.1.” value in data set [1] came out at 7.9. In addition, in data set [2], the IC50 was 39.8 nM. Also, the solubility in data set [6] was more than 455 µM; in data set [4], 900 µg/mL (≈ 2.1 mM). For the same molecule, in data set [7], the “tumour fluorescence (p21 reporter) in vivo” value was “comparable to R306465”. The molecule further displayed a melting point in data set [5] of 163 to 171 °C.
Turning to `O=C(NO)c1cnc(N2CCN(C(CO)c3ccc4ccccc4c3)CC2)nc1` (stereo not drawn) [Compound 7], the “Enzymatic activity pIC50 C.1.” value in data set [1] came to 9.7. Also, the IC50 in data set [2] was 20 nM. The solubility at 0.5 h in data set [3] (setting [8]) and in data set [3] (setting [9]) was not above 10 µM throughout.
In the case of `O=C(NO)c1cnc(N2CCN(C(CO)c3cc4ccccc4o3)CC2)nc1` (stereo not drawn) [Compound 8], the “Enzymatic activity pIC50 C.1.” value in data set [1] is recorded as 9.0. Moreover, the IC50 in data set [2] was 31.6 nM. Further, the solubility at 0.5 h in data set [3] (setting [8]) and in data set [3] (setting [9]) was 10 to 50 µM (≈ 3.83 to 19.2 µg/mL) in each case. For the same molecule, the solubility in data set [4] was found to be 2200 µg/mL (≈ 5.74 mM).
As to `O=C(NO)c1cnc(N2CCN(C(CO)c3csc4ccccc34)CC2)nc1` (stereo not drawn) [Compound 9], in data set [1], the “Enzymatic activity pIC50 C.1.” value is 9.8. Further, the IC50 in data set [2] was 50.1 nM.
`CC(C)(C)c1ccc(C(C(O)CO)N2CCN(c3ncc(C(=O)NO)cn3)CC2)cc1` (stereo not drawn) [Compound 10]: in data set [1], the “Enzymatic activity pIC50 C.1.” value is on record as 7.0. Besides, the “Cellular activity pIC50 C.2.” value in data set [2] was found to be 7.1. In addition, the solubility in data set [6] was more than 455 µM.
As for `CCCO` [propanol], the “% metabolism” value (after 15 min of incubation with active microsomes, compound 5 μM) came to 25%.
